Experimental data published in article PMC9669179 (Epilepsia, 2022).
Like-named read-outs stand apart in the source and are kept apart here.

Assays:
[1] = system: adult male CF-1 mice; assay: 6 Hz 44 mA seizure test in mice; assay type: in vivo, mouse
[2] = Sprague Dawley, rat, in vivo
[3] = system: mice; details: mouse, cited from earlier work
[4] = system: adult Sprague-Dawley rats; assay: Maximal electroshock; assay type: in vivo, rat; details: MES; for Efficacy in rats (number seizure protected /number tested): low dose i.p. (CLB 17, CBZ 3, VPA 165 mg/kg); for Seizure protection (in words): rats
[5] = CF-1, mouse, in vivo
[6] = in vivo; details: CF-1, mouse, ip; for half-life: Plasma t1/2
[7] = Sprague Dawley, rat, in vivo; remark: listed apart in the source
[8] = system: adult Sprague-Dawley rats; details: rat, MES, i.p.; cited from earlier work
[9] = system: adult male CF-1 mice; details: mouse, 6 Hz 44 mA, i.p.; cited from earlier work
[10] = in vivo; details: CF-1, mouse, ip
[11] = CF-1, mouse, in vivo; remark: listed apart in the source
[12] = in vivo; details: Sprague Dawley, rat, ip
[13] = system: male adult Sprague-Dawley rats; assay: 6 Hz 80 V seizure test in rats; assay type: in vivo, rat; details: for Seizure protection (in words): rats, any time-point
[14] = system: rats; details: rat, minimum motor impairment test, i.p.; cited from earlier work
[15] = in vivo; details: Sprague Dawley, rat, ip, Brain t1/2
[16] = Brain pharmacokinetics in mice; details: mouse
[17] = Plasma pharmacokinetics in rats; details: rats
[18] = Plasma pharmacokinetics in mice
[19] = Brain pharmacokinetics in rats; details: rats, after CBZ i.p.
[20] = high dose i.p. (CLB 17, VPA 570, LEV 500 mg/kg), time test 0.25 h
[21] = high dose i.p. (CLB 17, VPA 570, LEV 500 mg/kg), time test 0.5 h
[22] = high dose i.p. (CLB 17, VPA 570, LEV 500 mg/kg), time test 1 h
[23] = high dose i.p. (CLB 17, VPA 570, LEV 500 mg/kg), time test 2 h
[24] = high dose i.p. (CLB 17, VPA 570, LEV 500 mg/kg), time test 4 h
[25] = high dose i.p. (CLB 17, VPA 570, LEV 500 mg/kg), time test 8 h
[26] = low dose i.p. (CLB 7, VPA 260, LEV 20 mg/kg), time test 0.25 h
[27] = low dose i.p. (CLB 7, VPA 260, LEV 20 mg/kg), time test 0.5 h
[28] = low dose i.p. (CLB 7, VPA 260, LEV 20 mg/kg), time test 1 h
[29] = low dose i.p. (CLB 7, VPA 260, LEV 20 mg/kg), time test 2 h
[30] = low dose i.p. (CLB 7, VPA 260, LEV 20 mg/kg), time test 4 h
[31] = low dose i.p. (CLB 7, VPA 260, LEV 20 mg/kg), time test 8 h
[32] = mice, low dose i.p. (VPA 260, LEV 20 mg/kg)
[33] = metabolite after high parent dose i.p.: CLB 17, CBZ 40 mg/kg
[34] = metabolite after low parent dose i.p.: CLB 7, CBZ 7 mg/kg
[35] = mouse, metabolite after high parent dose i.p.: CLB 17, CBZ 40 mg/kg
[36] = mouse, metabolite after low parent dose i.p.: CLB 7, CBZ 7 mg/kg

With `CCCC(CCC)C(=O)O` [VPA, sodium valproate] the “Efficacy in mice (number seizure protected/number tested)” value [1, 20] was 4/4, the “Efficacy in mice (number seizure protected/number tested)” value [1, 21] was 4/4 and the “Efficacy in mice (number seizure protected/number tested)” value [1, 22] was 4/4. For the same compound, the “Efficacy in mice (number seizure protected/number tested)” value [1, 23] was 4/4, the “Efficacy in mice (number seizure protected/number tested)” value [1, 24] was 0/4 and the “Efficacy in mice (number seizure protected/number tested)” value [1, 25] was 0/4. For the same compound, the “Efficacy in mice (number seizure protected/number tested)” value [1, 26] was 4/4, the “Efficacy in mice (number seizure protected/number tested)” value [1, 27] was 3/4 and the “Efficacy in mice (number seizure protected/number tested)” value [1, 28] was 0/4. The “Efficacy in mice (number seizure protected/number tested)” value [1, 29] was 0/4, the “Efficacy in mice (number seizure protected/number tested)” value [1, 30] was 0/4 and the “Efficacy in mice (number seizure protected/number tested)” value [1, 31] was 0/4. For the same compound, the “Brain concentration needed for complete seizure protection” value ([1]; mice, comparison of the two VPA dose levels) was “above 100 ng/mg”, the “Seizure protection (in words)” value ([1]; mice, high dose i.p. (VPA 570 mg/kg), sustained only within 2 hrs) was “maximal antiseizure efficacy” and the “Seizure protection (in words)” value [1, 32] was “seizure protection was observed within the first hour”. The “Brain Dose Prop (AUC)” value [2] was 1.84, the “TD50 - high dose” value ([3]; in vivo, ip) was 570 mg/kg and the “Efficacy in rats (number seizure protected /number tested)” value (from here on “Efficacy in rats”) ([4]; time test 0.25 h) was 3/4. For the same compound, the “Efficacy in rats” value ([4]; time test 0.5 h) was 3/4, the “Efficacy in rats” value ([4]; time test 1 h) was 1/4 and the “Efficacy in rats” value ([4]; time test 2 h) was 0/4. For the same compound, the “Efficacy in rats” value ([4]; time test 4 h) was 0/4, the “Efficacy in rats” value ([4]; time test 8 h) was 0/4 and the “Seizure protection (in words)” value ([4]; high dose i.p. (CLB 37, VPA 315 mg/kg)) was “full to moderate seizure protection”. The “Seizure protection (in words)” value ([4]; low dose i.p. (CLB 17, VPA 165 mg/kg)) was “moderate protection”, the “Plasma Dose Prop (Cmax)” value [5] was 0.863 and the Tmax [6] was 30 min. For the same compound, the Tmax ([6]; Plasma Tmax) was 15 min, the half-life [6] was 43.8 min and the “Plasma Dose Prop (Cmax)” value [7] was 0.902. The “Time to total drug elimination (>97% drug eliminated)” value ([7]; ip) was “less than 4.5 hrs”, the “ED50 - low dose” value [8] was 165 mg/kg and the “ED50 - low dose” value [9] was 260 mg/kg. It also gave a Tmax [10] of 30 min, a Tmax ([10]; Brain Tmax) of 15 min and a half-life ([10]; Brain t1/2) of 55.6 min. The “Brain Dose Prop (AUC)” value [11] was 2.17, the “Brain t1/2” value ([11]; ip) was 76.8 min and the Tmax ([12]; Plasma Tmax) was 15 min.

With `CC[C@@H](C(N)=O)N1CCCC1=O` [LEV, levetiracetam] the “Efficacy in mice (number seizure protected/number tested)” value [1, 20] was 1/4, the “Efficacy in mice (number seizure protected/number tested)” value [1, 21] was 1/4 and the “Efficacy in mice (number seizure protected/number tested)” value [1, 22] was 1/4. For the same compound, the “Efficacy in mice (number seizure protected/number tested)” value [1, 23] was 1/4, the “Efficacy in mice (number seizure protected/number tested)” value [1, 24] was 1/4 and the “Efficacy in mice (number seizure protected/number tested)” value [1, 25] was 0/4. The “Efficacy in mice (number seizure protected/number tested)” value [1, 26] was 0/4, the “Efficacy in mice (number seizure protected/number tested)” value [1, 27] was 0/4 and the “Efficacy in mice (number seizure protected/number tested)” value [1, 28] was 0/4. The “Efficacy in mice (number seizure protected/number tested)” value [1, 29] was 0/4, the “Efficacy in mice (number seizure protected/number tested)” value [1, 30] was 0/4 and the “Efficacy in mice (number seizure protected/number tested)” value [1, 31] was 0/4. The Protection against seizures ([1]; mice, high-dose LEV (500 mg/kg i.p.), within 4 hrs post-dose) was 25%, the “Seizure protection (in words)” value [1, 32] was “did not protect” and the “Brain Dose Prop (AUC)” value [2] was 0.56. For the same compound, the “Brain t1/2” value ([2]; ip) was 212 min, the “TD50 - high dose” value ([3]; rotarod test, i.p.) was 500 mg/kg and the “Plasma Dose Prop (AUC)” value [5] was 1.27. The “Plasma Dose Prop (Cmax)” value [5] was 1.00, the “Plasma t1/2” value ([5]; ip) was 123 min and the Tmax [6] was 15 min. For the same compound, the half-life [6] was 103 min, the “Efficacy in rats” value ([13]; high dose i.p. (LEV 800 mg/kg), time test 0.25 h) was 0/4 and the “Efficacy in rats” value ([13]; high dose i.p. (LEV 800 mg/kg), time test 0.5 h) was 0/4. For the same compound, the “Efficacy in rats” value ([13]; high dose i.p. (LEV 800 mg/kg), time test 1 h) was 0/4, the “Efficacy in rats” value ([13]; high dose i.p. (LEV 800 mg/kg), time test 2 h) was 0/4 and the “Efficacy in rats” value ([13]; high dose i.p. (LEV 800 mg/kg), time test 4 h) was 0/4. The “Efficacy in rats” value ([13]; high dose i.p. (LEV 800 mg/kg), time test 8 h) was 0/4, the “Efficacy in rats” value ([13]; low dose i.p. (LEV 14 mg/kg), time test 0.25 h) was 0/4 and the “Efficacy in rats” value ([13]; low dose i.p. (LEV 14 mg/kg), time test 0.5 h) was 0/4. The “Efficacy in rats” value ([13]; low dose i.p. (LEV 14 mg/kg), time test 1 h) was 0/4, the “Efficacy in rats” value ([13]; low dose i.p. (LEV 14 mg/kg), time test 2 h) was 0/4 and the “Efficacy in rats” value ([13]; low dose i.p. (LEV 14 mg/kg), time test 4 h) was 0/4. The “Efficacy in rats” value ([13]; low dose i.p. (LEV 14 mg/kg), time test 8 h) was 0/4, the “Seizure protection (in words)” value ([13]; high dose LEV 800 mg/kg i.p.) was “failed to protect” and the “Seizure protection (in words)” value ([13]; low dose LEV 14 mg/kg i.p.) was “failed to protect”. For the same compound, the “Plasma Dose Prop (AUC)” value [7] was 0.55, the “Plasma Dose Prop (Cmax)” value [7] was 0.500 and the “Plasma t1/2” value ([7]; ip) was 191 min. The “TD50 - high dose” value [14] was 800 mg/kg, the “Brain Dose Prop (AUC)” value [11] was 1.03 and the half-life [15] was 265 min. For the same compound, the half-life ([12]; Plasma t1/2) was 370 min.

In the case of `NC(=O)N1c2ccccc2C2OC2c2ccccc21` (stereo not shown) [CBZE, carbamazepine-10,11-epoxide], the “Brain/Plasma AUC ratio of active metabolite” value (“Brain/Plasma AUC ratio” below) [16, 33] is reported as 1.00, the “Brain/Plasma AUC ratio” value [16, 34] is reported as 1.20 and the “CBZE plasma exposures as % of CBZ” value ([17]; after CBZ i.p.) is reported as “approximately 70%”. For the same compound, the “Plasma half-life of metabolite” value ([17]; after CBZ i.p.) was “approximately 4 hrs”, the “Plasma half-life of CBZE relative to CBZ” value ([18]; mice, high dose CBZ 40 mg/kg i.p., fold longer than CBZ) was ~ 3 fold and the “Plasma t1/2 of metabolite” value [18, 35] was 239 min. For the same compound, the “Plasma t1/2 of metabolite” value [18, 36] was 72 min and the “Brain half-life of metabolite” value [19] was “approximately 4 hrs”.

For `O=C1CC(=O)N(c2ccccc2)c2cc(Cl)ccc2N1` [NCLB, N-desmethyl clobazam], the “Brain/Plasma AUC ratio” value [16, 33] was 1.64, the “Brain/Plasma AUC ratio” value [16, 34] was 1.88 and the “NCLB concentrations relative to CLB” value ([17]; plasma and brain, after CLB i.p., fold less than CLB) was ~ 20 fold. The “NCLB concentrations relative to CLB” value ([18]; mice, after CLB i.p., fold greater than CLB) was “approximately 10 fold”, the “Plasma AUC of NCLB relative to CLB” value ([18]; mouse, after CLB i.p., fold greater than CLB) was “approximately 10 fold” and the “Plasma t1/2 of metabolite” value [18, 35] was 266 min. For the same compound, the “Plasma t1/2 of metabolite” value [18, 36] was 385 min.
